# Measured values: patent US20230381142A1, “ANTILEISHMANIAL COMPOUNDS, COMPOSITIONS AND USE THEREOF” (TRUSTEES OF BOSTON UNIVERSITY, priority 2022, published 2023)
# Legend:
# [1] = system: L. donovani intracellular amastigotes infecting THP-1 cells; test: High content intracellular amastigote assay in THP-1 cells (Assay Conditions B; CDIPD screen); type: cell-based, Leishmania donovani; conditions: for L. donovani amastigotes % GI at 10 μM (THP-1 cells): footnote b
# Procedure: (§1) Assay Conditions B: THP-1 cells (human acute monocytic leukemia cell line—ATCC TIB202) were grown in RPMI supplemented with 10% Fetal Bovine Serum (FBS) and 50 μM 2-mercaptoethanol at 37° C. in 5% CO2. THP-1 were seeded in microwell plates at 5×10^5 cells/mL density and treated with 0.1 μM phorbol myristate acetate (PMA, Sigma) at 37° C. for 48 h for differentiation into adherent, non-dividing macrophages. After activation by PMA, cells were washed and incubated with complete RPMI medium containing stationary phase Leishmania promastigotes (L. major: strain LV39; L. donovani, strain 1S/Cl2D) at a 1:15 parasite-cell ratio. Compounds were added and incubated at 37° C. for 72 h. Cells were then washed with phosphate-buffered saline (PBS), fixed for 30 minutes with 4% formaldehyde, rinsed again with PBS, stained for 2 h with 4′,6′-diamidino-2-phenylindole (DAPI 300 nM) and finally washed with PBS. In a collaborative effort to identify new antileishmanial chemotypes with minimal host cell cytotoxicity, compounds from the Boston University Center for Molecular Discovery (BUCMD) screening collection were assessed in a phenotypic, high content primary screen at the University of California's Center for Discovery and Innovation in Parasitic Diseases (CDIPD) for the ability to inhibit growth of L. donovani intracellular amastigotes infecting THP-1 cells. […] Dose-response testing in L. donovani (both intracellular amastigotes and promastigotes) confirmed concentration-dependent growth inhibition of both morphologies of the parasite at low micromolar EC50 values for both compounds (Table 1).
# [2] = system: THP-1 cells; test: Host THP-1 cell cytotoxicity in the CDIPD high content screen; type: cell-based, human; conditions: Homo sapiens, THP-1; 10 μM; footnote b; read-out: THP-1 host cell % growth inhibition at 10 μM
# Procedure: as §1
# [3] = system: L. donovani intracellular amastigotes infecting THP-1 macrophages; test: GSK intramacrophage L. donovani assay (LD AMMAC, inMac; Assay Conditions C); type: cell-based; conditions: Leishmania donovani, THP-1
# Summary of the method: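 EC50 values come from counting amastigotes per infected THP-1 macrophage (AMMAC). Parallel read-outs give percentage of infected cells per well (INFCELL) and a macrophage-number toxicity EC50 (MAC).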
# [4] = system: L. donovani intracellular amastigotes in B10R cells; test: UCSD L. donovani infection assay (Assay Conditions D); type: cell-based; conditions: Leishmania donovani; for EC50: average of two biological replicates, read-out: L. donovani EC50 (UCSD assay)
# Summary of the method: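 Compounds, either single-point at 10 μM or 10-point 2-fold series (3 technical, 2 biological replicates), were incubated 72 h at 37° C. with B10R host cells co-seeded with day-7 stationary L. donovani promastigotes (20:1). DAPI-stained nuclei imaging yielded intracellular parasite EC50 and host-cell CC50.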
# [5] = Kinetic aqueous solubility by CAD; type: physicochemical; conditions: aqueous medium, kinetic from dmso stock, high-throughput CAD
# Procedure: Solubility of compounds using ChemiLuminescent Nitrogen Detection (CLND) was measured as described. Solubility of compounds using Charged Aerosol Detection (CAD) was measured as described. Solubility of solid compounds in Fasted Simulated Intestinal Fluid (FaSSIF) was measured as described.
# [6] = target: human serum albumin (Homo sapiens, UniProt P02768); test: Human serum albumin (HSA) binding, chromatographic; type: in vitro ADME
# Chain of human serum albumin (P02768 25-609): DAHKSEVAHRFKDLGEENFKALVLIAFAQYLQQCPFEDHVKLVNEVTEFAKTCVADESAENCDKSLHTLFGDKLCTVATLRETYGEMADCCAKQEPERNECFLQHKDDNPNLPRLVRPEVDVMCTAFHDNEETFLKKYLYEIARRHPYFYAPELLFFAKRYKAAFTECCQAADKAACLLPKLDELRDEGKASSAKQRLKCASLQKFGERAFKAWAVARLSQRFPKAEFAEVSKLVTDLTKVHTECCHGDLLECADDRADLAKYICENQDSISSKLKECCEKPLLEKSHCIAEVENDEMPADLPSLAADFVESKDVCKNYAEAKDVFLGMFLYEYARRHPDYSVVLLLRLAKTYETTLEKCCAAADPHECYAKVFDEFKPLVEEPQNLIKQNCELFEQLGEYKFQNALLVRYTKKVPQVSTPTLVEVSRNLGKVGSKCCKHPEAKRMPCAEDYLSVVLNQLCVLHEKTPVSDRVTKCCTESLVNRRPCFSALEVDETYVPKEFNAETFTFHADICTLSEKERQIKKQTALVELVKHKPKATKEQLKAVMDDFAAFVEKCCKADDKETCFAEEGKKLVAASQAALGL
# Procedure: The percentage of compound bound to human serum albumin was measured using a chromatographic method as described. Briefly, each compound was assayed on an immobilized HSA column and gradient retention times measured, with chromatographic peak detection by UV. Each retention time was then converted to a % HSA bound value using a calibration set of compounds with a known % HSA binding.
# [7] = Property forecast index (PFI = ChromLogD7.4 + aromatic rings); type: physicochemical
# [8] = UCSD infection assay, host cell cytotoxicity (CC50); type: cell-based; conditions: host macrophages infected with L. donovani; cytotoxicity against host macrophages
compound,measurement,setting,value
COc1ccc(N2C(=O)c3[nH]nc(C(C)C)c3C2c2ccc(C)cc2)cc1 (stereo not drawn) [CMLD007169],L. donovani amastigotes % GI at 10 μM (THP-1 cells),[1],0.0%
same,inhibition at 10 µM,[2],< 10%
COc1ccc(N2C(=O)c3[nH]nc(C(C)C)c3C2c2ccc(F)cc2)cc1 (stereo not drawn) [CMLD007188],L. donovani amastigotes % GI at 10 μM (THP-1 cells),[1],0.0%
same,inhibition at 10 µM,[2],< 10%
COc1ccc(N2C(=O)c3[nH]nc(-c4ccccc4)c3C2c2ccccc2)cc1 (stereo not drawn) [CMLD007203],L. donovani amastigotes % GI at 10 μM (THP-1 cells),[1],0.0%
same,inhibition at 10 µM,[2],< 10%
COc1ccc(N2C(=O)c3[nH]nc(C)c3C2c2ccccc2)cc1 (stereo not drawn) [CMLD007219],L. donovani amastigotes % GI at 10 μM (THP-1 cells),[1],0.0%
same,inhibition at 10 µM,[2],< 10%
COc1ccc(N2C(=O)c3[nH]nc(C)c3C2c2ccc(F)cc2)cc1 (stereo not drawn) [CMLD007221],L. donovani amastigotes % GI at 10 μM (THP-1 cells),[1],0.0%
same,inhibition at 10 µM,[2],< 10%
COc1ccc(N2C(=O)c3[nH]nc(-c4ccccc4)c3C2c2ccc(F)cc2)cc1 (stereo not drawn) [CMLD007235],L. donovani amastigotes % GI at 10 μM (THP-1 cells),[1],0.0%
same,inhibition at 10 µM,[2],30%
COc1ccc(N2C(=O)c3[nH]nc(C)c3C2c2ccc(C)cc2)cc1 (stereo not drawn) [CMLD007247],L. donovani amastigotes % GI at 10 μM (THP-1 cells),[1],0.0%
same,inhibition at 10 µM,[2],< 10%
COc1ccc(N2C(=O)c3[nH]nc(-c4ccccc4)c3C2c2ccc(C)cc2)cc1 (stereo not drawn) [CMLD007262],L. donovani amastigotes % GI at 10 μM (THP-1 cells),[1],0.0%
same,inhibition at 10 µM,[2],< 10%
COc1ccc(N2C(=O)c3[nH]nc(C(C)C)c3C2c2ccccc2)cc1 (stereo not drawn) [CMLD007286],L. donovani amastigotes % GI at 10 μM (THP-1 cells),[1],0.0%
same,inhibition at 10 µM,[2],< 10%
CC(C)Cc1n[nH]c2c1C(c1ccccc1)N(c1ccccc1)C2=O (stereo not drawn) [CMLD007421],L. donovani amastigotes % GI at 10 μM (THP-1 cells),[1],0.0%
same,inhibition at 10 µM,[2],< 10%
Cc1ccc(C2c3c(CC(C)C)n[nH]c3C(=O)N2c2ccccc2)cc1 (stereo not drawn) [CMLD007424],L. donovani amastigotes % GI at 10 μM (THP-1 cells),[1],81.0%
same,inhibition at 10 µM,[2],35%
CC(C)Cc1n[nH]c2c1C(c1ccc(F)cc1)N(c1ccccc1)C2=O (stereo not drawn) [CMLD007425],L. donovani amastigotes % GI at 10 μM (THP-1 cells),[1],15.0%
same,inhibition at 10 µM,[2],13%
COc1ccc(N2C(=O)c3[nH]nc(CC(C)C)c3C2c2ccc(C)cc2)cc1 (stereo not drawn) [CMLD007430],L. donovani amastigotes % GI at 10 μM (THP-1 cells),[1],0.0%
same,inhibition at 10 µM,"[1]; Leishmania donovani, THP-1, read-out: inhibition at 10 μM (initial screening)",0%
same,inhibition at 10 µM,[2],< 10%
"CC(C)Cc1n[nH]c2c1C(c1ccccc1Cl)N(c1ccc3c(c1)OCO3)C2=O (stereo not drawn) [Compound 67, 5-(benzo[d][1,3]dioxol-5-yl)-4-(2-chlorophenyl)-3-isobutyl-4,5-dihydropyrrolo[3,4-c]pyrazol-6(1H)-one]",IC50,[3],500 nM
same,IC50,[4],200 nM
same,EC50,[4],160 nM
same,solubility,[5],35 µM
same,HSA Binding,[6],98.0%
same,PFI,[7],8.7
same,CC50 at 72 h,[8],12.2 µM
"Cc1cc(F)ccc1C1c2c(CC(C)C)n[nH]c2C(=O)N1c1ccc2c(c1)OCO2 (stereo not drawn) [Compound 70, 5-(benzo[d][1,3]dioxol-5-yl)-4-(4-fluoro-2-methylphenyl)-3-isobutyl-4,5-dihydropyrrolo[3,4-c]pyrazol-6(1H)-one]",IC50,[3],> 100000 nM
same,IC50,[4],100 nM
same,EC50,[4],100 nM
same,solubility,[5],46 µM
same,HSA Binding,[6],97.6%
same,PFI,[7],8.6
same,CC50 at 72 h,[8],12.1 µM
"COc1ccc(N2C(=O)c3[nH]nc(CC(C)C)c3C2c2ccccc2OC)cc1F (stereo not drawn) [Compound 72, 5-(3-fluoro-4-methoxyphenyl)-3-isobutyl-4-(2-methoxyphenyl)-4,5-dihydropyrrolo[3,4-c]pyrazol-6(1H)-one]",IC50,[3],1300 nM
same,IC50,[4],400 nM
same,EC50,[4],380 nM
same,solubility,[5],43 µM
same,HSA Binding,[6],95.9%
same,PFI,[7],8.5
same,CC50 at 72 h,[8],0.26 µM
"COc1ccc(N2C(=O)c3[nH]nc(CC(C)C)c3C2c2ccc(F)cc2C)cc1F (stereo not drawn) [Compound 73, 4-(4-fluoro-2-methylphenyl)-5-(3-fluoro-4-methoxyphenyl)-3-isobutyl-4,5-dihydropyrrolo[3,4-c]pyrazol-6(1H)-one]",IC50,[3],3200 nM
same,IC50,[4],200 nM
same,EC50,[4],160 nM
same,solubility,[5],35 µM
same,HSA Binding,[6],96.3%
same,PFI,[7],8.8
same,CC50 at 72 h,[8],10.9 µM
"CC(C)Cc1n[nH]c2c1C(c1ccccc1Br)N(c1ccc(Br)cc1)C2=O (stereo not drawn) [Compound 74, 4-(2-bromophenyl)-5-(4-bromophenyl)-3-isobutyl-4,5-dihydropyrrolo[3,4-c]pyrazol-6(1H)-one]",IC50,[3],10000 nM
same,IC50,[4],400 nM
same,EC50,[4],390 nM
same,solubility,[5],< 1 µM
same,HSA Binding,[6],98.0%
same,PFI,[7],10.4
same,CC50 at 72 h,[8],4.98 µM
"COc1ccccc1C1c2c(CC(C)C)n[nH]c2C(=O)N1c1ccc(Br)cc1 (stereo not drawn) [Compound 75, 5-(4-bromophenyl)-3-isobutyl-4-(2-methoxyphenyl)-4,5-dihydropyrrolo[3,4-c]pyrazol-6(1H)-one]",IC50,[3],500 nM
same,IC50,[4],200 nM
same,EC50,[4],240 nM
same,solubility,[5],< 1 µM
same,HSA Binding,[6],97.5%
same,PFI,[7],9.6
same,CC50 at 72 h,[8],1.14 µM
"Cc1cc(F)ccc1C1c2c(CC(C)C)n[nH]c2C(=O)N1c1ccc(Br)cc1 (stereo not drawn) [Compound 76, 5-(4-bromophenyl)-4-(4-fluoro-2-methylphenyl)-3-isobutyl-4,5-dihydropyrrolo[3,4-c]pyrazol-6(1H)-one]",IC50,[3],600 nM
same,IC50,[4],100 nM
same,EC50,[4],120 nM
same,solubility,[5],< 1 µM
same,HSA Binding,[6],97.7%
same,PFI,[7],9.8
same,CC50 at 72 h,[8],3.04 µM
"COc1cc(F)ccc1C1c2c(CC(C)C)n[nH]c2C(=O)N1c1ccc(Br)cc1 (stereo not drawn) [Compound 77, 5-(4-bromophenyl)-4-(4-fluoro-2-methoxyphenyl)-3-isobutyl-4,5-dihydropyrrolo[3,4-c]pyrazol-6(1H)-one]",IC50,[3],100 nM
same,IC50,[4],100 nM
same,EC50,[4],120 nM
same,solubility,[5],< 1 µM
same,HSA Binding,[6],98.5%
same,PFI,[7],9.7
same,CC50 at 72 h,[8],4.04 µM
"CC(C)Cc1n[nH]c2c1C(c1ccccc1Cl)N(c1ccc(N(C)C)cc1)C2=O (stereo not drawn) [Compound 78, 4-(2-chlorophenyl)-5-(4-(dimethylamino)phenyl)-3-isobutyl-4,5-dihydropyrrolo[3,4-c]pyrazol-6(1H)-one]",IC50,[3],800 nM
same,IC50,[4],300 nM
same,EC50,[4],260 nM
same,solubility,[5],21 µM
same,HSA Binding,[6],96.7%
same,PFI,[7],9.4
same,CC50 at 72 h,[8],7.32 µM
